Reference: PubChem BioAssay AID1963826 (Molecular Pharmacology Branch, DTP, NCI, 2024)
Several values for one entry are separate records, joined by “and”; a condition that tells them apart may be missing. Equal values may be shown once.

Test system: 926638-142-R-J1-PDC complex spheroid viability
Assay: Anticancer human tumor 926638-142-R-J1-PDC patient-derived endometrial carcinoma cell line growth inhibition [POLQ]
Settings: for viability, T/C: stronger effect = lower value
Experimental: Multicellular complex tumor spheroid response to Polymerase (POL) inhibitors (novobiocin, ART-558, RP6685) in combination with a variety of drugs and investigational agents in selected tumor cell lines
The POL inhibitors (novobiocin, ART-558, and RP6685) were evaluated both individually and in combination with standard of care and investigational anticancer small molecules within a complex spheroid model of solid tumors. . Complex spheroids include a stromal component modeled by human endothelial cells (HUVEC) and fibroblasts modeled by human mesenchymal stem cells (MSCs). The concentration ranges selected for each drug and investigational agent were based upon clinically achievable concentrations if the clinical Cmax of the agent was known.
Compounds. The drugs and investigational agents: novobiocin (NSC847541), ART-558 (NSC835418), RP-6685 (NSC848927), peposertib (NSC802822), ceralasertib (NSC780249), elimusertib (NSC800525), camonsertib (NSC841442), AZD-1390 (NSC803789), olaparib (NSC753686), talazoparib (NSC767125), rucaparib (NSC756644), sotorasib (NSC818433), MRTX-1133 (NSC836407), SN-38 (NSC673596), topotecan (NSC609699), epotoside (NSC141540), doxorubicin (NSC123127), gemcitabine (NSC613327), 5-fluorouracil (NSC19893), paclitaxel (NSC125973), vemurafenib (NSC761431), MSA-2 (NSC828583), SN-011 (NSC837082), adavosertib (NSC754352), prexasertib (NSC758257), carboplatin (NSC241240) and oxaliplatin (NSC266046), were obtained from the National Cancer Institute (NCI) Developmental Therapeutics Program Chemical Repository (21). The FDA-approved anticancer drug set is available from the Developmental Therapeutics Program at https://dtp.cancer.gov/organization/dscb/obtaining/. […] The stock solutions were prepared in dimethyl sulfoxide (DMSO, Sigma-Aldrich, St. Louis, MO, cat. D2650), except for the platinum compounds which were prepared in saline (Quality Biological, Gaithersburg, MD, cat. 114-055-101), at 800-fold the tested concentration and stored at -70 degrees C prior to their use. All drugs and investigational agents were tested over a range starting from a high concentration at or near the clinical Cmax and decreasing in half-log increments. If the clinical Cmax for an agent had not been determined, the highest concentration tested was 10 microM, except for SN-38, which was tested at a high concentration of 1 microM.
Cell Culture. All cells were maintained in an incubator at 37 degrees C and 5% CO2 with 95% humidity. The PDC lines were cultured according to standard operating procedures established by the NCI PDMR (https://pdmr.cancer.gov). Table 3 of the manuscript, lists the cell lines along with the number of the three cell types plated to form the mct-spheroids and media for tumor cell growth. After thawing, all PDC lines, except 997537-175-T-J1-PDC and 415267-285-R-J2-PDC, were cultured in Matrigel-coated flasks prepared with a working solution of 1X Ham's F-12 nutrient mix, without supplementation (Thermo Fisher Scientific, cat. 11765054), 100 U/mL penicillin-streptomycin (Thermo Fisher Scientific, cat. 15140122), and 2.5% Matrigel (Corning Inc., Corning, NY, cat. 354248) for the first three passages. The two PDC lines 997537-175-T-J1-PDC and 415267-285-R-J2-PDC were cultured on uncoated flasks. The 857933-349-R-J2-PDC line was cultured in 6C/Colon 1B media containing advanced DMEM/F-12 (Thermo Fisher Scientific, cat. 12634028), 10 mM HEPES (Thermo Fisher Scientific, cat. 15630080), 1X GlutaMAX supplement (Thermo Fisher Scientific, cat. 35050061), 0.1 mg/mL primocin (InvivoGen, San Diego, CA, cat. ant-pm-2), 10% defined fetal bovine serum, heat inactivated (HyClone Laboratories Inc., Logan, UT, cat. SH30070.03HI), 50% L-WRN conditioned media (ATCC, cat. CRL-3276), 1.25 mM N-Acetyl-L-cysteine (Sigma-Aldrich, cat. A9165), 10 mM nicotinamide (Sigma-Aldrich, cat. N0636), 1X B-27 supplement (Thermo Fisher Scientific, cat. 17504044), 1X N-2 supplement (Thermo Fisher Scientific, cat. […]

[1] = curve of first compound, second compound 0.0316 µM
[2] = curve of first compound, second compound 0.1 µM
[3] = curve of first compound, second compound 0.316 µM
[4] = curve of first compound, second compound 1 µM
[5] = curve of first compound, second compound 3.16 µM
[6] = curve of first compound, second compound 10 µM
[7] = second compound 0.0316 µM, first compound 0.0316 µM
[8] = second compound 0.0316 µM, first compound 0.1 µM
[9] = second compound 0.0316 µM, first compound 0.316 µM
[10] = second compound 0.0316 µM, first compound 1 µM
[11] = second compound 0.0316 µM, first compound 3.16 µM
[12] = second compound 0.0316 µM, first compound 10 µM
[13] = second compound 0.1 µM, first compound 0.0316 µM
[14] = second compound 0.1 µM, first compound 0.1 µM
[15] = second compound 0.1 µM, first compound 0.316 µM
[16] = second compound 0.1 µM, first compound 1 µM
[17] = second compound 0.1 µM, first compound 3.16 µM
[18] = second compound 0.1 µM, first compound 10 µM
[19] = second compound 0.316 µM, first compound 0.0316 µM
[20] = second compound 0.316 µM, first compound 0.1 µM
[21] = second compound 0.316 µM, first compound 0.316 µM
[22] = second compound 0.316 µM, first compound 1 µM
[23] = second compound 0.316 µM, first compound 3.16 µM
[24] = second compound 0.316 µM, first compound 10 µM
[25] = second compound 1 µM, first compound 0.0316 µM
[26] = second compound 1 µM, first compound 0.1 µM
[27] = second compound 1 µM, first compound 0.316 µM
[28] = second compound 1 µM, first compound 1 µM
[29] = second compound 1 µM, first compound 3.16 µM
[30] = second compound 1 µM, first compound 10 µM
[31] = second compound 3.16 µM, first compound 0.0316 µM
[32] = second compound 3.16 µM, first compound 0.1 µM
[33] = second compound 3.16 µM, first compound 0.316 µM
[34] = second compound 3.16 µM, first compound 1 µM
[35] = second compound 3.16 µM, first compound 3.16 µM
[36] = second compound 3.16 µM, first compound 10 µM
[37] = second compound 10 µM, first compound 0.0316 µM
[38] = second compound 10 µM, first compound 0.1 µM
[39] = second compound 10 µM, first compound 0.316 µM
[40] = second compound 10 µM, first compound 1 µM
[41] = second compound 10 µM, first compound 3.16 µM
[42] = second compound 10 µM, first compound 10 µM
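Also: spheroids exposed to drugs for one week before readout.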
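For viability, T/C in this document: percent viability relative to DMSO vehicle control wells set as 100%.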

`CNCc1ccc(-c2[nH]c3cc(F)cc4c3c2CCNC4=O)cc1` + Nc1ccc(C#CCN(C(=O)Cc2ncc(C(F)(F)F)cc2C(F)(F)F)c2ccc(F)cc2)nn1 gave an IC50 [1] greater than 10 µM, an IC50 [2] greater than 10 µM and an IC50 [3] greater than 10 µM. It also gave an IC50 [4] greater than 10 µM, an IC50 [5] greater than 10 µM and an IC50 [6] greater than 10 µM. For the same compound, the viability, T/C [7] was 94.5%, the viability, T/C [8] was 87.2% and the viability, T/C [9] was 91.2%. For the same compound, the viability, T/C [10] was 83.1%, the viability, T/C [11] was 86.2% and the viability, T/C [12] was 71.3%. It also gave a viability, T/C [13] of 96.7%, a viability, T/C [14] of 115% and a viability, T/C [15] of 90.7%. For the same compound, the viability, T/C [16] was 87.8%, the viability, T/C [17] was 101% and the viability, T/C [18] was 71.3%. For the same compound, the viability, T/C [19] was 101%, the viability, T/C [20] was 108% and the viability, T/C [21] was 95%. The viability, T/C [22] was 82.6%, the viability, T/C [23] was 115% and the viability, T/C [24] was 73.7%. For the same compound, the viability, T/C [25] was 103%, the viability, T/C [26] was 90.2% and the viability, T/C [27] was 91.2%. For the same compound, the viability, T/C [28] was 79.5%, the viability, T/C [29] was 95.3% and the viability, T/C [30] was 84.1%. It also gave a viability, T/C [31] of 102%, a viability, T/C [32] of 89.5% and a viability, T/C [33] of 101%. It also gave a viability, T/C [34] of 80.1%, a viability, T/C [35] of 93% and a viability, T/C [36] of 71.1%. The viability, T/C [37] was 90%, the viability, T/C [38] was 81.4% and the viability, T/C [39] was 93%. The viability, T/C [40] was 95.1%, the viability, T/C [41] was 98.7% and the viability, T/C [42] was 73.1%.

In the case of `C=CC(=O)N1CCN(c2nc(=O)n(-c3c(C)ccnc3C(C)C)c3nc(-c4c(O)cccc4F)c(F)cc23)C(C)C1` (stereo not drawn), the viability, T/C (compound 0.0316 µM) is reported as 73.8% and 100% and 104%, the viability, T/C (compound 0.1 µM) is reported as 88.7% and 83.5% and 89.7% and the viability, T/C (compound 0.316 µM) is reported as 75.7% and 108% and 103%. For the same compound, the viability, T/C (compound 1 µM) was 82.7% and 84.2% and 86.3%, the viability, T/C (compound 3.16 µM) was 72.6% and 88% and 81% and the viability, T/C (compound 10 µM) was 58.7% and 55% and 55.7%. For the same compound, the IC50 (curve of compound) was greater than 10 µM.

`C#Cc1c(F)ccc2cc(O)cc(-c3ncc4c(N5CC6CCC(C5)N6)nc(OCC56CCCN5CC(F)C6)nc4c3F)c12` (stereo not drawn) + Cc1cccc(N(C)C(=O)C2C(O)CCN2c2nc(C)cc(C(F)(F)F)c2C#N)c1 showed an IC50 [1] greater than 10 µM, an IC50 [2] greater than 10 µM and an IC50 [3] greater than 10 µM. For the same compound, the IC50 [4] was greater than 10 µM, the IC50 [5] was greater than 10 µM and the IC50 [6] was greater than 10 µM. It also gave a viability, T/C [7] of 90.9%, a viability, T/C [8] of 76.7% and a viability, T/C [9] of 69.9%. The viability, T/C [10] was 63.8%, the viability, T/C [11] was 58.3% and the viability, T/C [12] was 56.9%. The viability, T/C [13] was 87.2%, the viability, T/C [14] was 96.2% and the viability, T/C [15] was 84.6%. For the same compound, the viability, T/C [16] was 71.9%, the viability, T/C [17] was 60.5% and the viability, T/C [18] was 63.9%. For the same compound, the viability, T/C [19] was 86.2%, the viability, T/C [20] was 75.1% and the viability, T/C [21] was 78.2%. It also gave a viability, T/C [22] of 71.8%, a viability, T/C [23] of 54% and a viability, T/C [24] of 61.7%. It also gave a viability, T/C [25] of 95.2%, a viability, T/C [26] of 76% and a viability, T/C [27] of 66.9%. The viability, T/C [28] was 76.2%, the viability, T/C [29] was 70.9% and the viability, T/C [30] was 52.5%. The viability, T/C [31] was 81.1%, the viability, T/C [32] was 84.3% and the viability, T/C [33] was 89.2%. It also gave a viability, T/C [34] of 58.5%, a viability, T/C [35] of 60.1% and a viability, T/C [36] of 53.5%. For the same compound, the viability, T/C [37] was 84.8%, the viability, T/C [38] was 79% and the viability, T/C [39] was 67.2%. The viability, T/C [40] was 71.8%, the viability, T/C [41] was 58.4% and the viability, T/C [42] was 66.5%.

For `O=C(c1cc(Cc2n[nH]c(=O)c3ccccc23)ccc1F)N1CCN(C(=O)C2CC2)CC1`, the viability, T/C (compound 0.0316 µM) was 88.8% and 70.9% and 97%, the viability, T/C (compound 0.1 µM) was 85.3% and 91.2% and 85.1% and the viability, T/C (compound 0.316 µM) was 86.5% and 105% and 91.6%. The viability, T/C (compound 1 µM) was 88.9% and 104% and 100%, the viability, T/C (compound 3.16 µM) was 85% and 76.3% and 79.9% and the viability, T/C (compound 10 µM) was 70.9% and 87.5% and 73%. The IC50 (curve of compound) was greater than 10 µM.
